Test results reported in patent US6656973B2, “(E)-4-carboxystyrl-4-chlorobenzyl sulfone and pharmaceutical compositions thereof” (Temple University - Of the Commonwealth System of Higher …, priority 1999, dated 2003).
Entries after “also recorded” stand apart in the source; their conditions may differ.

How the values were obtained:
[1] = test system: Normal human HFL-1 cells; assay: Cytoprotection assay against paclitaxel; format: cell-based; set-up: key: +: A compound was deemed to be active if the number of viable cells following the combination treatment was higher than the number of cells after treatment with paclitaxel alone; settings: 2.0 or 10 μM sulfone, paclitaxel 250 nM at time zero or 24 hours later, viable cells after 96 hours of paclitaxel
Protocol: The cytoprotective activity of the same Istyryl benzylsulfones was determined as follows. Normal human HFL-1 cells were plated at a cell density of 1.0×10^5 cells per well in six culture plates. Styryl benzylsulfone was added 24 hours later at a final concentration of either 2.0 or 10 μM. The time of styryl sulfone addition was designated as time zero. Paclitaxel (250 nM) was added at either time zero, or 24 hours after time zero. The total number of viable cells was determined, as described above, after 96 hours of paclitaxel treatment. A compound was deemed to be active if the number of viable cells following the combination treatment was higher than the number of cells after treatment with paclitaxel alone.

[2] = test system: HFL-1 cells; assay: Protection of normal human fibroblasts from paclitaxel cytotoxicity; format: cell-based; settings: HFL-1 cells pretreated with 2.0 μM for 8 hours, then paclitaxel (250 μM); viable cells 96 hours after paclitaxel
Protocol: FIG. 3 is a graph of the effect of paclitaxel on HFL-1 cells which were either pre-treated with (E)-4-fluorostyryl-4-chlorobenzylsulfone and then exposed to paclitaxel, or treated simultaneously with both agents. Cells were enumerated 96 hours after exposure to paclitaxel.
HFL-1 cells were plated at a cell density of 1.0×10^5 per well 24 hours prior to drug addition. Cells were pretreated with (E)-4-fluorostyryl-4-chlorobenzylsulfone (2.0 μM) for 8 hours and then exposed to paclitaxel (250 μM). Other cells were treated with paclitaxel alone, or both agents simultaneously. Cells were enumerated by Trypan blue exclusion using a hematocytometer 96 hours after exposure to paclitaxel. The ordinate in FIG. 3 represents the number of viable cells following treatment with (E)-4-fluorostyryl-4-chlorobenzylsulfone and paclitaxel, divided by the number of viable cells remaining after treatment with paclitaxel alone.

[3] = test system: HFL-1 cells; assay: Protection of normal human fibroblasts from vincristine cytotoxicity; format: cell-based; settings: 2.0 μM sulfone 24 hours before vincristine, viability 96 hours after vincristine
Protocol: Normal HFL cells were treated with 0 to 0.250 nM vincristine and 2.0 μM (E)-4-fluorostyryl-4-chlorobenzylsulfone as indicated. Cell viability was assessed 96 hours after vincristine was added. “V”, vincristine alone; “A→V”, styryl sulfone followed by vincristine 24 hours later; “A+V”, simultaneous styryl sulfone and vincristine treatment; “V→A”, vincristine followed by styryl sulfone 24 hours later.
HFL-1 cells were treated with […] vincristine and, optionally, 2.0 μM (E)-4-fluorostyryl-4-chlorobenzylsulfone either 24 hours before or after vincristine treatment, or simultaneously with vincristine treatment. Cell viability was assessed 96 hours after the addition of vincristine. The results are shown in FIG. 4: “V”, vincristine alone; “A→V”, styryl sulfone followed by vincristine 24 hours later; “A+V”, simultaneous styryl sulfone and vincristine treatment; “V→A”, vincristine followed by styryl sulfone 24 hours later.

[4] = test system: HFL-1 cells; assay: Protection of normal human fibroblasts from anticancer agent cytotoxicity (Protection Ratio); format: cell-based; settings: 2.0 μM sulfone 24 hour preincubation, then cisplatin 5.0 μM; viable cells at 96 hours
Protocol: HFL-1 cells were plated at a cell density of 1.0×10^5 in 1 ml of medium. Twenty-four hours following plating, 2.0 μM of (E)-4-fluorostyryl-4-chlorobenzylsulfone was added to the medium. Following a 24 hour preincubation with the styryl sulfone, the various cytotoxic agents listed in Table 6 were added to the cells, at the concentrations given in Table 6. the number of viable cells was determined by Trypan blue exclusion using a hematocytometer 96 hours after exposure to cytotoxic agent. The “Protection Ratio” is the number of viable cells following treatment with (E)-4-fluorostyryl-4-chlorobenzylsulfone and cytotoxic agent, divided by the number of viable cells remaining after treatment with cytotoxic agent alone. A protection ratio of 2 or more is considered highly significant, while is protection ratio of 1.5-2 is considered less significant.

[5] = test system: HFL-1 cells; assay: Long term exposure of normal human fibroblasts, cell count; format: cell-based; settings: 2.5 or 5.0 μM for 48 or 72 hours, counted 96 hours after the incubation period
Protocol: Cells were exposed to either 2.5 or 5.0 μM of the styryl sulfone […] and counted.
HFL-1 cells were plated at a cell density of 1.0×10^5 per well 24 hours prior to drug addition. Cells were exposed to either 2.5 or 5.0 μM (E)-4-fluorostyryl-4-chlorobenzylsulfone for 48 or 72 hours. Cells were counted 96 hours after the incubation period.

[6] = test system: ICR female mice; assay: Protection of mice from paclitaxel toxicity (mortality); format: in vivo; settings: 50 mg/Kg i.p. pre-treatment before 150 mg/kg paclitaxel i.p.; mortality at 48 and 144 hours
Protocol: The styryl sulfone was given 24 hours before paclitaxel, 4 hours before paclitaxel, or simultaneously with paclitaxel. Control animals received paclitaxel alone or styryl sulfone alone. Mortality was assessed 48 after paclitaxel injection.
FIG. 6 is similar to FIG. 5, except that mortality was assessed 144 hours post paclitaxel administration.
ICR female mice age 10-12 weeks (Taconic) were divided into the following treatment groups and received intraperitoneal injections of 50 mg/Kg (E)-4-fluorostyryl-4-chlorobenzylsulfone dissolved in DMSO and/or 150 mg/kg paclitaxel (Taxol, Sigma Chemical Co.) dissolved in DMSO. The styryl sulfone was given 24 hours before paclitaxel, 4 hours before paclitaxel, or simultaneously with paclitaxel. Control animals received paclitaxel alone or styryl sulfone alone. Mortality was assessed 48 and 144 hours after paclitaxel injection. The results are shown in FIG. 5 (48 hours post paclitaxel administration) and FIG. 6 (144 hours post paclitaxel administration). Paclitaxel toxicity in mice is abrogated by pre-treatment with (E)-4-fluorostyryl-4-chlorobenzylsulfone.

SMILES | Cytoprotection [1] | other results
O=C(O)c1ccc(/C=C/S(=O)(=O)Cc2ccc(Cl)cc2)cc1 [Example 10, (E)-4-carboxystyryl-4-chlorobenzyl sulfone] | + | –
O=S(=O)(/C=C/c1ccc(F)cc1)Cc1ccc(Cl)cc1Cl [Example 11, (E)-4-fluorostyryl-2,4-dichlorobenzyl sulfone] | + | –
O=S(=O)(/C=C/c1ccc(F)cc1Cl)Cc1ccc(Cl)cc1 [Example 9, (E)-2-chloro-4-fluorostyryl-4-chlorobenzyl sulfone] | + | –
O=S(=O)(/C=C/c1ccc(Cl)cc1)Cc1ccc(Cl)cc1 [Example 8, (E)-4-chlorostyryl-4-chlorobenzyl sulfone] | + | –
O=S(=O)(/C=C/c1ccc(F)cc1)Cc1ccc(Cl)cc1 [Example 7, (E)-4-fluorostyryl-4-chlorobenzyl sulfone] | + | protection from the toxic effects of paclitaxel [2]: conferred protection from the toxic effects of paclitaxel; protection from the toxic effects of vincristine [3]: conferred protection from the toxic effects of vincristine; also recorded: Vincristine toxicity is abrogated; Protection Ratio [4]: 1.3; replication rate (cell count) [5]: transiently reduced replication rates; paclitaxel toxicity in mice (mortality) [6]: abrogated
